In patent US11560420B2, “Method for producing antibodies using ovine B-cells and uses thereof” (Roche Diagnostics Operations, Inc., priority 2013, dated 2023):

Columns and labels:
sIgG+CD45R+ B-cells = assay: IgG secretion by in vitro cultivated pools of sIgG+CD45R+ B-cells (sheep IgG ELISA of supernatants); format: cell-based; conditions: for number of IgG-containing wells compared with basal medium: basal medium supplemented with the factor
Text: (§1) To exemplify the current invention PBMCs were isolated from sheep immunized with a KLH-conjugated hapten and underwent positive panning using the biotinylated hapten and magnetic streptavidin beads to enrich antigen-specific B-cells. Subsequently, B-cells were stained for both surface IgG (sIgG) and the B-cell marker CD45R or CD21. Pools of 50 cells (sIgG^+CD45R^+ or sIgG^+CD21^+) were sorted into 96-well plates using a BD FACS Aria cell sorter. Cells were cultivated in medium supplemented with different factors in order to identify a medium composition that promotes the proliferation of the B-cells as well as the differentiation to IgG secreting cells (i.e. plasma cells)
(§2) In all experiment the basal medium was supplemented with 10% FCS, SAC and sheep TSN. Cells were cultivated in the presence of EL4B5 feeder cells.
(§3) Pools of 50 cells/well of antigen-enriched sIgG^+CD45R^+ B-cells were cultivated in the different media in a 96-well plate in the presence of EL4B5 feeder cells. After one week of cultivation the sheep IgG concentration of the supernatants was analyzed using a sheep IgG ELISA. The results for IMDM as basal medium are presented in FIG. 1 and for DMEM and IMDM as basal medium in the following Table.
(§4) For a more detailed analysis 4 categories of wells were defined: Wells with no IgG producing cells (IgG concentration below limit of detection, i.e. <10 ng/ml), wells with low IgG concentrations (10-50 ng/ml), wells with an average IgG concentration (50-200 ng/ml) and wells with a high IgG concentration (200-400 ng/ml).
(§5) Suffolk-Merino sheep were immunized several times using a KLH-coupled hapten as immunogen (500 μg dose formulated in an adjuvant). Five days before isolation of B-cells sheep were boosted by a subcutaneous application of the immunogen (500 μg dose per animal formulated in an adjuvant). For isolation of B-cells approx. 150 ml EDTA-blood was taken from the animals and mixed with an equal volume of PBS. The diluted blood was loaded on Leucosep™ tubes (Greiner Bio-One, Frickenhausen, Germany) (20 ml per tube) and centrifuged for 15 min. at 800×g at room temperature. After centrifugation the PBMCs (peripheral blood mononuclear cells) were collected, washed with PBS and counted using a counting chamber.
Following washing with PBS the PBMCs were resuspended in FACS Buffer (PBS/1% BSA) at 5×10^7 cells/ml. For positive panning of antigen-specific B-cells, the cells were labeled by incubation with the biotinylated hapten (500 ng/ml) for 30 min. at 4° C. under gentle rotation. Subsequently cells were washed with PBS and resuspended in Labeling Buffer (PBS/2 mM EDTA) at 1×10^7 cells per 90 μl. Cells were incubated with magnetic streptavidin microbeads (Miltenyi Biotec, Bergisch-Gladbach, Germany) for 30 min. at 4° C. under gentle rotation (using 10 μl of the beads per 90 μl of cell suspension). After washing with PBS cells were resuspended in MACS Buffer (PBS/1% BSA/2 mM EDTA) at 2×10^8 cells/ml and loaded on MACS column (Miltenyi Biotec) equilibrated with MACS buffer. Following washing with MACS buffer the magnet was removed from the column and labeled, antigen-specific cells were eluted in MACS buffer.
For staining of B-cells the eluted cell fraction was washed with PBS and resuspended in FACS Buffer at 2×10^7 cells/ml. […]

[1] = tested on: single sIgG+CD21+ B-cells; assay: Sorting and cultivation of single sIgG+CD21+ B-cells, IgG concentration of supernatant by ELISA; format: cell-based, sheep; conditions: for % IgG positive wells: % of total wells
Text: PBMCs were isolated from sheep immunized with a KLH-conjugated hapten, underwent positive panning for enrichment of antigen-specific B-cells and were stained for both sheep sIgG and CD21. Single cells were sorted in 96-well plates using a BD FACS Aria cell sorter. Cells were cultivated in IMDM supplemented with 10% FCS, SAC, sheep TSN and PMA. Cells were cultivated in the presence of EL4B5 feeder cells. After one week of cultivation, the IgG concentration of the supernatant of the cells was analyzed by ELISA.
This experiment was performed again. PBMCs were isolated from sheep immunized with another KLH-conjugated hapten, underwent positive panning for enrichment of antigen-specific B-cells and were stained for both sheep sIgG and CD21. Double-positive single cells were sorted in 96-well plates using a BD FACS Aria cell sorter. Cells were cultivated in IMDM supplemented with 10% FCS, SAC, sheep TSN and PMA in the presence of EL4B5 feeder cells.
In control experiments single cells were cultivated using the same cultivation conditions in the absence of PMA. After one week of cultivation, the IgG concentration of the cell supernatants was analyzed by ELISA. After one week of cultivation in the presence of PMA a total of approx. 16% of total wells contained IgG-secreting B-cell clones. In turn, 35% of the wells with IgG-secreting clones contained a low IgG concentration, 35% contained an average IgG concentration and 30% contained a high IgG concentration. In the absence of PMA none of the wells contained IgG-secreting B-cell clones.
Sheep PBMCs from immunized animals were isolated as described above. Antigen-specific B-cells were enriched by positive panning using the biotinylated antigen and magnetic streptavidin microbeads (Miltenyi Biotec) as described above. Cells were stained using a 1:50 diluted FITC-labeled anti-sheep IgG monoclonal antibody (Clone GT-34) (Sigma-Aldrich) in combination with a 1:10 diluted RPE-labeled anti-sheep CD21 mAb (AbD Serotec). Cells were incubated with the mAbs for 45 min. at 4° C. under gentle rotation. In control experiments aliquots of the cells were stained with the individual mAbs alone (single staining). Unstained cells served as negative control.
After washing with PBS cells were resuspended in FACS buffer and subjected to cell sorting using a FACS Aria I cell sorter (BD Biosciences). Single sIgG^+CD21^+ double positive B-cells were identified and sorted into a 96-well plate (one cell/well) containing 280 μl medium and γ-irradiated murine EL4B5 feeder cells (approx. 5×10^4 feeder cells/well seeded 24 hours before cell sorting into the plates).
The medium for cultivation of single ovine B-cells was IMDM (Gibco) was supplemented with 10% FCS (Hyclone), L-Penicillin-Streptomycin-Glutamine (1×) (Gibco), 55 μM 2-Mercaptoethanol (Gibco), 0.025% Pluronic F-68 (Gibco), sheep TSN (1:20 dilution), SAC (1:10,000 dilution) (Calbiochem) and 1 μg/ml PMA (Sigma-Aldrich).
B-cells were incubated for 7 to 10 days in the medium at 37° C./5% CO2 in a humidified atmosphere. Subsequently the supernatant of the cells was harvested and the IgG concentration was determined by ELISA as described below
A biotin-conjugated monoclonal anti-sheep IgG antibody (cat. #213-062-177, Dianova, Hamburg, Germany) was immobilized on a streptavidin coated 96-well plate (MicroCoat, Bernried, Germany). The mAb (100 μl/well) was used at a concentration of 300 ng/ml in PBS/1% RPLA4 (bovine plasma albumin) (Roche Diagnostics GmbH, Mannheim, Germany) and wells were incubated for 1 hour at room temperature (RT) with the diluted mAb. After washing with Wash Buffer (0.9% NaCl/0.05% Tween) the supernatants of the in vitro cultivated B-cells or serial dilutions of purified polyclonal sheep IgG (Roche) were added to the plates and incubated for 1 h at RT. After washing with Wash Buffer wells were incubated with a donkey anti-sheep IgG (H+L) antibody (1:15,000 dilution in PBS/1% RPLA4) labeled with horseradish peroxidase (Dianova, cat. #713-035-147). […]

sIgG+CD21+ B-cells = assay: IgG secretion by in vitro cultivated pools of sIgG+CD21+ B-cells (sheep IgG ELISA of supernatants); format: cell-based
Text: as §1, §2
as §3, with “sIgG^+CD21^+” for “sIgG^+CD45R^+”, “indicated medium” for “different media”, “2” for “1”
as §4, §5
Following washing with PBS the PBMCs were resuspended in FACS Buffer (PBS/1% BSA) at 5×10^7 cells/ml. For positive panning of antigen-specific B-cells, the cells were labeled by incubation with the biotinylated hapten (500 ng/ml) for 30 min. at 4° C. under gentle rotation. Subsequently cells were washed with PBS and resuspended in Labeling Buffer (PBS/2 mM EDTA) at 1×10^7 cells per 90 μl. […]

[2] = tested on: single sIgG+CD21+ B-cells; assay: Antigen-specificity of IgG secreted by single-cell B-cell clones (antigen-specific ELISA); format: cell-based, sheep; conditions: for % wells with antigen-specific IgG: % of IgG-secreting clones
Description: The specificity of the secreted antibodies was analyzed using an antigen-specific ELISA (data not shown).
Additionally, the specificity of the secreted antibodies was analyzed using an antigen-specific ELISA (data not shown).
Biotin-conjugated antigens were immobilized on a streptavidin coated 96-well plate (MicroCoat, Bernried, Germany). The biotinylated antigens (100 μl/well) were used at a concentration of 100-300 ng/ml in PBS/1% RPLA4 (bovine plasma albumin) (Roche Diagnostics GmbH, Mannheim, Germany) and wells were incubated with the diluted antigens for 1 hour at room temperature (RT). After washing with Wash Buffer (0.9% NaCl/0.05% Tween) the supernatants of the in vitro cultivated B-cells or serial dilutions of purified polyclonal sheep IgG (Roche) were added to the plates and incubated for 1 hour at RT. After washing with Wash Buffer wells were incubated with a donkey anti-sheep IgG (H+L) antibody (1:15,000 dilution in PBS/1% RPLA4) labeled with horseradish peroxidase (Dianova, cat. #713-035-147). After incubation for 1 hour at RT the plates were washed with Wash Buffer and signals were detected using ABTS solution (Roche Diagnostics GmbH, Mannheim, Germany) as substrate.

[3] = first experiment, % of wells with IgG-secreting clones
[4] = second experiment, listed as with PMA
[5] = second experiment, % of wells with IgG-secreting clones
[6] = second experiment, % of wells with IgG-secreting clones, listed as with PMA

Molecule: CCCCCCCCCCCCCC(=O)O[C@@H]1[C@@H](C)[C@@]2(O)[C@@H](C=C(CO)C[C@]3(O)C(=O)C(C)=C[C@@H]23)[C@@H]2C(C)(C)[C@]12OC(C)=O [PMA, Phorbol 12-Myristate-13-Acetate]
- wells containing significant concentrations of IgG (>50 ng/ml) (sIgG+CD45R+ B-cells; DMEM basal medium (10% FCS, SAC, sheep TSN)): 64%
- wells with an average IgG concentration (50-200 ng/ml) (sIgG+CD45R+ B-cells; IMDM as basal medium): 100%
- wells containing significant concentrations of IgG (>50 ng/ml) (sIgG+CD45R+ B-cells; IMDM basal medium (10% FCS, SAC, sheep TSN)): 100%
- wells with IgG-secreting clones containing a high IgG concentration (200-400 ng/ml) [1, 3]: 14%
- wells with IgG-secreting clones containing a low IgG concentration (10-50 ng/ml) [1, 3]: 62%
- wells with IgG-secreting clones containing an average IgG concentration (50-200 ng/ml) [1, 3]: 24%
- total wells containing IgG-secreting B-cell clones ([1]; first experiment, single cells, IMDM with 10% FCS, SAC, sheep TSN and PMA, EL4B5 feeder cells, one week): 33%
- wells with high IgG conc. (number) ([1]; second experiment): 20
- wells with low IgG conc. (number) ([1]; second experiment): 23
- wells with medium IgG conc. (number) ([1]; second experiment): 23
- No. IgG positive wells ([1]; second experiment (another KLH-conjugated hapten), single cells, one week): 66
- % IgG positive wells ([1]; second experiment): approx. 16%
- % IgG positive wells [1, 4]: 15.7%
- wells with high IgG conc. (%) [1, 5]: 30%
- wells with low IgG conc. (%) [1, 5]: 35%
- wells with medium IgG conc. (%) [1, 5]: 35%
- wells with high IgG conc. (%) [1, 6]: 30.3%
- wells with low IgG conc. (%) [1, 6]: 34.8%
- wells with medium IgG conc. (%) [1, 6]: 34.8%
- wells with a high IgG concentration (200-400 ng/ml) (sIgG+CD21+ B-cells; IMDM as basal medium): approx. 50%
- wells with an average IgG concentration (50-200 ng/ml) (sIgG+CD21+ B-cells; IMDM as basal medium): approx. 40%
- wells containing significant levels of IgG (>50 ng/ml) (sIgG+CD21+ B-cells; addition to the basal medium): approx. 90%
- IgG-secreting clones producing antigen-specific antibodies ([2]; first experiment, % of total IgG-secreting clones): 38%
- No. wells with antigen-specific IgG ([2]; second experiment): 19
- % wells with antigen-specific IgG ([2]; second experiment): 29%
- % wells with antigen-specific IgG [2, 4]: 28.8%

Molecule: IL-6: human IL-6 (Roche Diagnostics GmbH), 50 ng/ml added to the basal medium
- number of IgG-containing wells compared with basal medium (sIgG+CD45R+ B-cells): increase

B1: IL-4: human IL-4 (Peprotech), 10 ng/ml added to the basal medium (protein, UniProt P05112 25-153, looked up)
Interleukin-4: HKCDITLQEIIKTLNSLTEQKTLCTELTVTDIFAASKNTTEKETFCRAATVLRQFYSHHEKDTRCLGATAQQFHRHKQLIRFLKRLDRNLWGLAGLNSCPVKEANQSTLENFLERLKTIMREKYSKCSS
- number of IgG-containing wells compared with basal medium (sIgG+CD45R+ B-cells): increase
- number of IgG-containing wells compared with basal medium (sIgG+CD21+ B-cells; basal medium supplemented with the factor): increase
